Assay results as given in US20210395210A1, “INHIBITION OF BACTERIAL CHAPERONIN SYSTEMS” (THE TRUSTEES OF INDIANA UNIVERSITY, priority 2018, published 2021).
Where two headings read alike, the source gives them in different places.

What was measured:
[1] = system: Drug sensitive Staphylococcus aureus (ATCC 25923); assay: Bacterial proliferation assay, drug sensitive S. aureus; assay type: cell-based
Description: (§1) Bacterial Strains: Enterococcus faecium—(Orla-Jensen) Schleifer and Kilpper-Balz strain NCTC 7171 (ATCC 19434); Drug sensitive Staphylococcus aureus—Rosenbranch strain Seattle 1945 (ATCC 25923); Methicillin resistant S. aureus (MRSA)—Rosenbach strain HPV107 (ATCC BAA-44); Klebsiella Pneumonia—(Schroeter) Trevisan strain NCTC 9633 (ATCC 13883); Acinetobacter baumannii—Bouvet and Grimont strain 2208 (ATCC 19606); Pseudomonas aeruginosa—(Schroeter) Migula strain NCTC 10332 (ATCC 10145); Enterobacter cloacae—E. cloacae, subsp. cloacae (Jordan) Hormaeche and Edwards strain CDC 442-68 (ATCC 13047).
(§2) Growth Media: All bacteria were grown in Brain Heart Infusion (BHI) broth/agar (Becton, Dickinson and Company). All liquid cultures were grown in BHI media supplemented with 25 mg/L Ca^2+ and 12.5 mg/L Mg^2+ to mimic free physiological concentrations of these cations. A 10 mg/mL Ca^2+ stock solution was prepared by dissolving 3.68 g of CaCl2.2H2O in 100 mL of deionized water, and a 10 mg/mL Mg^2+ stock solution was prepared by dissolving 8.36 g of MgCl2.6H2O in 100 mL deionized water. Both stock solutions were filter-sterilized using 0.2 μm pore size cellulose-acetate filters. 2.5 mL of the sterile 10 mg/mL Ca^2+ stock and 1.25 mL of the sterile 10 mg/mL Mg^2+ stock solutions were added per 1 L of autoclaved BHI medium to obtain 25 mg/L Ca^2+ and 12.5 mg/L Mg^2+ ions, respectively.
(§3) General Assay Protocol: Stock bacterial cultures were streaked onto BHI agar plates and grown overnight at 37° C. Fresh aliquots of broth were inoculated with single bacterial colonies and the cultures were grown overnight at 37° C. with shaking (240 rpm) in cation adjusted BHI media. The following morning, the overnight cultures were sub-cultured (1:5 dilution) into fresh aliquots of cation adjusted BHI media and grown at 37° C. for 1-2 hours with shaking. After 2 h, cultures were diluted into fresh media to achieve final OD600 readings of 0.017. Aliquots of these diluted cultures (30 μL) were added to clear, flat-bottom, 384-well polystyrene plates that were stamped with 0.5 μL of test compounds in 20 μL media. […] Plates were sealed with “Breathe Easy” oxygen permeable membranes (Diversified Biotech) and left to incubate at 37° C. without shaking (stagnant assay). OD600 nm readings were taken at either 6-8 h (S. aureus, MRSA, K. pneumonia, E. cloacae, and P. aeruginosa) or 24 h (E. faecium and A. baumannii). A second set of baseline control plates were prepared analogously, but without any bacteria added, to correct for possible compound absorbance and/or precipitation. Plates were then read at 600 nm using a Molecular Devices SpectraMax Plus384 microplate reader. […] Results presented represent the averages of EC50 values obtained from at quadriplicate (duplicate of duplicate) replicates.

[2] = system: Methicillin resistant S. aureus (MRSA) (ATCC BAA-44); assay: Bacterial proliferation assay, MRSA; assay type: cell-based, Staphylococcus aureus; details: Staphylococcus aureus
Description: as §1, §2, §3

[3] = system: Enterococcus faecium (ATCC 19434); assay: Bacterial proliferation assay, E. faecium; assay type: cell-based
Description: as §1, §2, §3

native MDH = target: T1, native MDH (Sus scrofa, UniProt P00346); assay: Counter-screen for inhibition of native MDH enzymatic activity; assay type: biochemical, pig; details: for inhibition of native MDH enzymatic activity (in words): false-positive counter-screen
T1 construct: soluble pig heart MDH from Roche, product #10127248001; purchased Roche 10127248001; host or cells: pig heart
T1 sequence (P00346 25-338): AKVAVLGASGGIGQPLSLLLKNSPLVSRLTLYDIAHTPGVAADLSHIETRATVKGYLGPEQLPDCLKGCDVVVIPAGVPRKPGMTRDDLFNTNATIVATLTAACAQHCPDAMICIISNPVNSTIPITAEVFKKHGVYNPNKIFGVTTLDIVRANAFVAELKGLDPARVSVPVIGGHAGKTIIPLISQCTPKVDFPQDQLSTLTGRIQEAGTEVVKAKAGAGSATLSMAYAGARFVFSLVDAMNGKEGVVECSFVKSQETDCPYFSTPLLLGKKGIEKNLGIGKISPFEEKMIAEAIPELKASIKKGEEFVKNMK
Protocol: Reagent Preparations & Assay Protocol: This assay was performed as described above for the GroEL/ES-dMDH refolding assay; however, the assay protocol differed in the sequence of compound addition to the assay plates. The refolding reactions were allowed to proceed for 45 min at 37° C. in the absence of test compounds (complete refolding of MDH occurs), then quenched with the EDTA stock. Compounds were then pin-transferred into the plates after the EDTA quenching step; thus, compounds effects are only possible by inhibiting the fully-refolded MDH reporter substrate. […] A340 nm measurements were recorded at 0.5 minutes (start point) and at successive time points until the amount of NADH consumed reached ˜90% (end point, generally between 20-35 minutes). Compounds were tested in 8-point, 3-fold dilution series (62.5 μM to 29 nM during the reporter reaction) in clear, flat-bottom 384-well microtiter plates. DMSO was used as a negative control, and previously discovered native MDH inhibitors were used as positive controls. […] Results presented represent the averages of IC50 values obtained from at least quadriplicate (duplicate of duplicate) replicates.

[4] = system: Enterobacter cloacae (ATCC 13047); assay: Bacterial proliferation assay, E. cloacae; assay type: cell-based
Description: as §1, §2, §3

[5] = system: Acinetobacter baumannii (ATCC 19606); assay: Bacterial proliferation assay, A. baumannii; assay type: cell-based
Description: as §1, §2, §3

[6] = system: Klebsiella Pneumonia (ATCC 13883); assay: Bacterial proliferation assay, K. pneumoniae; assay type: cell-based
Description: as §1, §2, §3

[7] = ATCC25923, OD600 at 6-8 h, read-out: Bacterial Proliferation EC50 S. aureus Sensitive
[8] = ATCC25923, log of EC50 (μM scale), with standard deviation, read-out: log(EC50) Bacterial Proliferation Assay S. aureus Sensitive (converted)
[9] = MRSA, OD600 at 6-8 h, read-out: Bacterial Proliferation EC50 S. aureus Resistant
[10] = MRSA, log of EC50 (μM scale), with standard deviation, read-out: log(EC50) Bacterial Proliferation Assay S. aureus Resistant (converted)
[11] = ATCC19434, OD600 at 24 h, read-out: Bacterial Proliferation EC50 E. faecium
[12] = ATCC19434, log of EC50 (μM scale), with standard deviation, read-out: log(EC50) Bacterial Proliferation Assay C. faecium (converted)
[13] = log of IC50 (μM scale), with standard deviation, read-out: log(IC50) Native MDH Reporter (converted)
[14] = read-out: Biochemical Assay IC50 Native MDH Reporter
[15] = ATCC13047, OD600 at 6-8 h, read-out: Bacterial Proliferation EC50 E. cloacae
[16] = ATCC13047, log of EC50 (μM scale), with standard deviation, read-out: log(EC50) Bacterial Proliferation Assay E. cloacae (converted)
[17] = ATCC19606, OD600 at 24 h, read-out: Bacterial Proliferation EC50 A. baumannii
[18] = ATCC19606, log of EC50 (μM scale), with standard deviation, read-out: log(EC50) Bacterial Proliferation Assay A. baumannii (converted)
[19] = ATCC13883, OD600 at 6-8 h, read-out: Bacterial Proliferation EC50 K. pneumoniae
[20] = ATCC13883, log of EC50 (μM scale), with standard deviation, read-out: log(EC50) Bacterial Proliferation Assay K. pneumoniae (converted)
[21] = ATCC25923, read-out: Bacterial Proliferation EC50 S. aureus Sensitive
[22] = ATCC25923, read-out: log(EC50) Bacterial Proliferation Assay S. aureus Sensitive (converted)
[23] = read-out: log(EC50) Bacterial Proliferation Assay S. aureus Resistant (converted)
[24] = ATCC19434, 24 h, read-out: Bacterial Proliferation EC50 E. faecium
[25] = ATCC19434, read-out: log(EC50) Bacterial Proliferation Assay C. faecium (converted)
[26] = log of IC50 (μM scale), with standard deviation
[27] = ATCC13047, read-out: Bacterial Proliferation EC50 E. cloacae
[28] = ATCC13047, read-out: log(EC50) Bacterial Proliferation Assay E. cloacae (converted)
[29] = ATCC19606, 24 h, read-out: Bacterial Proliferation EC50 A. baumannii
[30] = ATCC19606, read-out: log(EC50) Bacterial Proliferation Assay A. baumannii (converted)
[31] = ATCC13883, read-out: Bacterial Proliferation EC50 K. pneumoniae
[32] = ATCC13883, read-out: log(EC50) Bacterial Proliferation Assay K. pneumoniae (converted)
[33] = ATCC25923, read-out: S. aureus Proliferation & Biofilm Assay EC50 Planktonic Growth
[34] = read-out: Bacterial Proliferation EC50 S. aureus Resistant

Row | SMILES | IC50 (native MDH; [13]) [µM] | IC50 (native MDH; [14]) [µM] | EC50 [1, 21] [µM] | EC50 [1, 22] [µM] | EC50 [2, 23] [µM] | EC50 [3, 24] [µM] | EC50 [3, 25] [µM] | inhibition of native MDH enzymatic activity (in words) (native MDH) | log(IC50) Native MDH Reporter (native MDH; [26]) | EC50 [4, 27] [µM] | EC50 [4, 28] [µM] | EC50 [5, 29] [µM] | EC50 [5, 30] [µM] | EC50 [6, 31] [µM] | EC50 [6, 32] [µM] | EC50 [1, 33] [µM] | EC50 [2, 34] [µM] | further results
1 | CC1(C)S[C@@H]2[C@H](NC(=O)[C@H](N)c3ccccc3)C(=O)N2[C@H]1C(=O)O [Ampicillin, ampicillin, reference compound] | > 63.1 | > 63 |  |  |  |  |  |  |  |  |  |  |  |  |  |  |  | EC50 [1, 7]: 0.19 µM; EC50 [1, 8]: 0.195 µM; EC50 [2, 9]: > 100 µM; EC50 [2, 10]: > 100 µM; EC50 [3, 11]: 6.9 µM; EC50 [3, 12]: 6.92 µM; EC50 [4, 15]: > 100 µM; EC50 [4, 16]: > 100 µM; EC50 [5, 17]: > 100 µM; EC50 [5, 18]: > 100 µM; EC50 [6, 19]: > 100 µM; EC50 [6, 20]: > 100 µM
2 | Cc1cc(C(C#N)c2ccc(Cl)cc2)c(Cl)cc1NC(=O)c1cc(I)cc(I)c1O (stereo not drawn) [Closantel, closantel, reference compound] |  |  | 0.47 | 0.468 | 0.468 | 1.2 | 1.23 | inhibit native MDH | 0.79 ± 0.17 | > 100 | > 100 | > 100 | > 100 | > 100 | > 100 |  |  | 
3 | O=C(Nc1ccc(Sc2nc3ccccc3s2)c(Cl)c1)c1cc(Br)cc(Br)c1O [Compound 1, N-(4-(Benzo[d]thiazol-2-ylthio)-3-chlorophenyl)-3,5-dibromo-2-hydroxybenzamide] |  |  | 0.36 | 0.363 | 0.55 | 0.52 | 0.513 | inhibit native MDH | 0.83 ± 0.25 | > 100 | > 100 | 66 | 66.1 | > 100 | > 100 | 0.36 | 0.55 | 
4 | O=C(Nc1ccc(Sc2nc3ccccc3s2)c(Cl)c1)c1cccc(Br)c1O [Compound 2, N-(4-(Benzo[d]thiazol-2-ylthio)-3-chlorophenyl)-3-bromo-2-hydroxybenzamide] | > 63.1 | > 63 | 0.45 | 0.457 | 0.708 | 24 | 23.4 | inactive against the reporter enzymes |  | > 100 | > 100 | 2.9 | 2.88 | > 100 | > 100 | 0.45 | 0.71 | 
5 | O=C(Nc1ccc(Sc2nc3ccccc3s2)c(Cl)c1)c1cc(Br)ccc1O [Compound 3, N-(4-(Benzo[d]thiazol-2-ylthio)-3-chlorophenyl)-5-bromo-2-hydroxybenzamide] | > 63.1 | > 63 | 0.12 | 0.117 | 0.17 | 15 | 14.8 | inactive against the reporter enzymes |  | > 100 | > 100 | > 100 | > 100 | > 100 | > 100 |  | 0.17 | 
6 | O=C(Nc1ccc(Sc2nc3ccccc3s2)c(Cl)c1)c1ccccc1O [Compound 4, N-(4-(Benzo[d]thiazol-2-ylthio)-3-chlorophenyl)-2-hydroxybenzamide] | > 63.1 | > 63 |  |  |  |  |  |  |  |  |  |  |  |  |  |  |  | EC50 [1, 7]: 0.31 µM; EC50 [1, 8]: 0.309 µM; EC50 [2, 9]: 0.45 µM; EC50 [2, 10]: 0.447 µM; EC50 [3, 11]: 64 µM; EC50 [3, 12]: 63.1 µM; EC50 [4, 15]: > 100 µM; EC50 [4, 16]: > 100 µM; EC50 [5, 17]: > 100 µM; EC50 [5, 18]: > 100 µM; EC50 [6, 19]: > 100 µM; EC50 [6, 20]: > 100 µM
7 | O=C(Nc1ccc(Sc2nc3ccccc3s2)cc1)c1cc(Br)cc(Br)c1O [Compound 5, N-(4-(Benzo[d]thiazol-2-ylthio)phenyl)-3,5-dibromo-2-hydroxybenzamide] |  |  | 0.44 | 0.437 | 0.525 | 0.88 | 0.891 | inhibit native MDH | 0.92 ± 0.21 | > 100 | > 100 | > 100 | > 100 | > 100 | > 100 | 0.44 | 0.52 | 
